Where two headings read alike, the source gives them in different places.
What was measured:
KRAS G13D = KRAS G13D (Homo sapiens, UniProt P01116+P62937, G13D); test: Ras-Raf disruption/FRET/MOA assay, KRAS G13D; type: biochemical
Description: (§1) Disruption of B-Raf Ras-Binding Domain (BRAF^RBD) Interaction with K-Ras by Compounds of the Invention (Also Called a FRET Assay or an MOA Assay)
(§2) Note—The following protocol describes a procedure for monitoring disruption of K-Ras G12C (GMP-PNP) binding to BRAF^RBD by a compound of the invention. This protocol may also be executed substituting other Ras proteins or nucleotides, such as K-Ras G12D and K-Ras G13D.
(§3) The purpose of this biochemical assay was to measure the ability of test compounds to facilitate ternary complex formation between a nucleotide-loaded K-Ras isoform and Cyclophilin A; the resulting ternary complex disrupts binding to a BRAF^RBD construct, inhibiting K-Ras signaling through a RAF effector.
(§4) In assay buffer containing 25 mM HEPES pH 7.3, 0.002% Tween20, 0.1% BSA, 100 mM NaCl and 5 mM MgCl2, tagless Cyclophilin A, His6-K-Ras-GMPPNP, and GST-BRAF^RBD were combined in a 384-well assay plate at final concentrations of 25 μM, 12.5 nM, and 50 nM, respectively. Compound was present in plate wells as a 10-point 3-fold dilution series starting at a final concentration of 30 μM. After incubation at 25° C. for 3 hours, a mixture of anti-His Eu-W1024 and anti-GST allophycocyanin was then added to assay sample wells at final concentrations of 10 nM and 50 nM, respectively, and the reaction incubated for an additional 1.5 hours. […] Compounds that facilitate disruption of a K-Ras:RAF complex were identified as those eliciting a decrease in the TR-FRET ratio relative to DMSO control wells.

KRAS G12V = KRAS G12V (Homo sapiens, UniProt P01116+P62937, G12V); test: Ras-Raf disruption/FRET/MOA assay, KRAS G12V; type: biochemical
Description: as §1, §2, §3, §4

KRAS G12D = KRAS G12D (Homo sapiens, UniProt P01116+P62937, G12D); test: Ras-Raf disruption/FRET/MOA assay, KRAS G12D; type: biochemical
Description: as §1, §2, §3, §4

KRAS G13C = KRAS G13C (Homo sapiens, UniProt P01116+P62937, G13C); test: Ras-Raf disruption/FRET/MOA assay, KRAS G13C; type: biochemical
Description: as §1, §2, §3, §4

KRAS G12S = KRAS G12S (Homo sapiens, UniProt P01116+P62937, G12S); test: Ras-Raf disruption/FRET/MOA assay, KRAS G12S; type: biochemical
Description: as §1, §2, §3, §4

KRAS WT = KRAS WT (Homo sapiens, UniProt P01116+P62937); test: Ras-Raf disruption/FRET/MOA assay, KRAS WT; type: biochemical
Description: as §1, §2, §3, §4

AsPC-1 (K-Ras G12D) [1] = test: CellTiter-Glo cell viability assay, AsPC-1; type: cell-based; conditions: Homo sapiens, ASPC1, 120 h
In short: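 Direct compound addition to plated cells; 5-day exposure; ~30 min RT equilibration; CellTiter-Glo luminescence. Normalization: (sample/avg DMSO)*100; 4-parameter logistic curve fit.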

KRAS G12C = KRAS G12C (Homo sapiens, UniProt P01116+P62937, G12C); test: Ras-Raf disruption/FRET/MOA assay, KRAS G12C; type: biochemical
Description: as §1, §2, §3, §4

NRAS G12C = target: T1, NRAS G12C (Homo sapiens, UniProt P01111+P62937, G12C); test: Ras-Raf disruption/FRET/MOA assay, NRAS G12C; type: biochemical
T1 construct: His6
Description: as §1, §2, §3, §4

AsPC-1 (K-Ras G12D) [2] = test: Potency assay: pERK in AsPC-1 cells; type: cell-based; conditions: Homo sapiens
[3] = disruption of BRAF RBD binding, with Cyclophilin A, read-out: KRAS G13D FRET IC50
[4] = disruption of BRAF RBD binding, with Cyclophilin A, read-out: KRAS G12V FRET IC50
[5] = disruption of BRAF RBD binding, with Cyclophilin A, read-out: KRAS G12D FRET IC50
[6] = disruption of BRAF RBD binding, with Cyclophilin A, read-out: KRAS G13C FRET IC50
[7] = disruption of BRAF RBD binding, with Cyclophilin A, read-out: KRAS G12S FRET IC50
[8] = disruption of BRAF RBD binding, with Cyclophilin A, read-out: KRAS WT FRET IC50
[9] = AsPC-1, K-Ras G12D, 5-day treatment, read-out: AsPC-1 Cell Viability IC50
[10] = disruption of BRAF RBD binding, with Cyclophilin A, read-out: KRAS G12C FRET IC50
[11] = NRAS G12C, read-out: NRAS G12C FRET data IC50
[12] = ASPC1, read-out: pERK EC50 (AsPC-1 KRAS G12D)
[13] = read-out: AsPC-1 Cell Viability IC50

Chain of KRAS G12C (P01116 1-169 isoform P01116-2 G12C limits assumed): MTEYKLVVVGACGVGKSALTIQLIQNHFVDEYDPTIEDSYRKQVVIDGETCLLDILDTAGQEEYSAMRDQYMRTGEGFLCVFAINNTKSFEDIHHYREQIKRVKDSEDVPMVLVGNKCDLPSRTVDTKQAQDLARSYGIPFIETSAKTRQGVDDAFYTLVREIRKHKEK
Chain of KRAS G12C (P62937 whole entry): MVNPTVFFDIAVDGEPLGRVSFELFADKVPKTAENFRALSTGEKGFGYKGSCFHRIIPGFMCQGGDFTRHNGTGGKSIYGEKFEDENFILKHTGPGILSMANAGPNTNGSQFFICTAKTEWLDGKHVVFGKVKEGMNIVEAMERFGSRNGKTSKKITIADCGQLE
Chain of KRAS G12V (P01116 1-169 isoform P01116-2 G12V limits assumed): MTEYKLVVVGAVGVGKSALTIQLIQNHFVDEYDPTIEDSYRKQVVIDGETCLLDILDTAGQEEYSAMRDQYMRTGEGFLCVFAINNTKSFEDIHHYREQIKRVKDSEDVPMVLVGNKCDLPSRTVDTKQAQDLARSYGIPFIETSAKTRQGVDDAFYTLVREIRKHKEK
Chain of KRAS G12V (P62937 whole entry): as the sequence (P62937 whole entry) above
Chain of KRAS G12D (P01116 1-169 isoform P01116-2 G12D limits assumed): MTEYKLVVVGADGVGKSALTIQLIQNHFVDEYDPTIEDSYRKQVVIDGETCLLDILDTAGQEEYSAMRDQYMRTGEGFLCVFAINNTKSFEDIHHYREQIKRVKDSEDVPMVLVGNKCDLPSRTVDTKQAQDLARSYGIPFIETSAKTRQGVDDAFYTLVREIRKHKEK
Chain of KRAS G12D (P62937 whole entry): as the sequence (P62937 whole entry) above
T1 sequence (P01111 whole entry G12C): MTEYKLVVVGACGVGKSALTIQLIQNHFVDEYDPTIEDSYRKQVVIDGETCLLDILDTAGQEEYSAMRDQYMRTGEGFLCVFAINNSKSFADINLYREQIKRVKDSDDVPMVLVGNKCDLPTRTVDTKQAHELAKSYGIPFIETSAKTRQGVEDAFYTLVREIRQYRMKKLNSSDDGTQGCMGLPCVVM
T1 sequence (P62937 whole entry): as the sequence (P62937 whole entry) above
Chain of KRAS WT (P01116 1-169 isoform P01116-2 limits assumed): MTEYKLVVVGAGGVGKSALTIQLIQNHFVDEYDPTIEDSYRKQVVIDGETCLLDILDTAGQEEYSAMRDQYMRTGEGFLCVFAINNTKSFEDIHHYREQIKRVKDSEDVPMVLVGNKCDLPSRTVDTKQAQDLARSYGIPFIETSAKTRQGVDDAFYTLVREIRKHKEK
Chain of KRAS WT (P62937 whole entry): as the sequence (P62937 whole entry) above
Chain of KRAS G13D (P01116 1-169 isoform P01116-2 G13D limits assumed): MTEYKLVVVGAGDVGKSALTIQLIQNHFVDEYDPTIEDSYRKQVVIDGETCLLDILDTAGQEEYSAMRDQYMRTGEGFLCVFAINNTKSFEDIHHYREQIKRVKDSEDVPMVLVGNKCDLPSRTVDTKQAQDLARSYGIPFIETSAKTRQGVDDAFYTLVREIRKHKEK
Chain of KRAS G13D (P62937 whole entry, the tested form may be a part): as the sequence (P62937 whole entry) above
Chain of KRAS G13C (P01116 1-169 isoform P01116-2 G13C limits assumed): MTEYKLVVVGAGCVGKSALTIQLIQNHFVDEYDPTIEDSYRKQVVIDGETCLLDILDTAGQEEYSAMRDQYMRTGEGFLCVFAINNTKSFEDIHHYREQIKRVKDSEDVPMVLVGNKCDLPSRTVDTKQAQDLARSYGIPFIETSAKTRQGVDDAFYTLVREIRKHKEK
Chain of KRAS G13C (P62937 whole entry): as the sequence (P62937 whole entry) above
Chain of KRAS G12S (P01116 1-169 isoform P01116-2 G12S limits assumed): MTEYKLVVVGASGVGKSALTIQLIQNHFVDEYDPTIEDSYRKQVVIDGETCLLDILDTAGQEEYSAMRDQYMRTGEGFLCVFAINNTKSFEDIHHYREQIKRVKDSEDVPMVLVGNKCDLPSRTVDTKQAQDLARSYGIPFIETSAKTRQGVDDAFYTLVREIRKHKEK
Chain of KRAS G12S (P62937 whole entry): as the sequence (P62937 whole entry) above

Structure (SMILES)	IC50 (KRAS G13D; [3]) [nM]	IC50 (KRAS G12V; [4]) [nM]	IC50 (KRAS G12D; [5]) [nM]	IC50 (KRAS G13C; [6]) [nM]	IC50 (KRAS G12S; [7]) [nM]	IC50 (KRAS WT; [8]) [nM]	IC50 (AsPC-1 (K-Ras G12D) [1]; [9]) [nM]	IC50 (KRAS G12C; [10]) [nM]	IC50 (NRAS G12C; [11]) [nM]	EC50 (AsPC-1 (K-Ras G12D) [2]; [12]) [nM]	IC50 (AsPC-1 (K-Ras G12D) [1]; [13]) [nM]	further results
CCn1c(-c2cccnc2[C@H](C)OC)c2c3cc(ccc31)-c1cc(O)cc(c1)C[C@H](NC(=O)[C@H](C(C)C)N(C)C(=O)N1CCN(C(=O)[C@@H]3CN3)CC1)C(=O)N1CCC[C@H](N1)C(=O)OCC(C)(C)C2 (atropisomer, axis not shown) [Compound 197]	10 to 100	10 to 100	100 to 1000	10 to 100	10 to 100	10 to 100	1000 to 10000	10 to 100	10 to 100			
CCn1c(-c2cccnc2[C@H](C)OC)c2c3cc(ccc31)-c1cc(O)cc(c1)C[C@H](NC(=O)[C@H](C(C)C)N1CC[C@@]3(CCN(C[C@H]4CN4)C3)C1=O)C(=O)N1CCC[C@H](N1)C(=O)OCC(C)(C)C2 (single isomer, unassigned) [Example 139]	10 to 100	10 to 100	10 to 100	< 10	10 to 100	10 to 100	1000 to 10000	< 10	< 10			EC50 (AsPC-1 (K-Ras G12D) [2]; ASPC1, AsPC-1 cells, K-Ras G12D, read-out: pERK EC50 (AsPC-1 KRAS G12D)): < 5000 nM
CCn1c(-c2cnccc2COC)c2c3cc(ccc31)-c1cc(O)cc(c1)C[C@H](NC(=O)[C@H](C(C)C)N(C)C(=O)CN(C)C(=O)[C@@H]1CN1C(C)=O)C(=O)N1CCC[C@H](N1)C(=O)OCC(C)(C)C2 [Compound 35]	100 to 1000	100 to 1000	100 to 1000	10 to 100	10 to 100	10 to 100		10 to 100	10 to 100	< 5000	1000 to 10000	
CCn1c(-c2cnccc2COC)c2c3cc(ccc31)-c1cc(O)cc(c1)C[C@H](NC(=O)[C@H](C(C)C)N(C)C(=O)CN(C)C(=O)[C@@H]1CN1C(=O)OC)C(=O)N1CCC[C@H](N1)C(=O)OCC(C)(C)C2 [Compound 39]	100 to 1000	100 to 1000	100 to 1000	10 to 100	10 to 100	100 to 1000		10 to 100	10 to 100	< 5000	1000 to 10000	
CCn1c(-c2cnccc2COC)c2c3cc(ccc31)-c1cc(O)cc(c1)C[C@H](NC(=O)[C@H](C(C)C)N(C)C(=O)CN(C)C(=O)[C@H]1[C@@H](C)N1[S@+]([O-])C(C)(C)C)C(=O)N1CCC[C@H](N1)C(=O)OCC(C)(C)C2 (stereo partly shown) [Compound 53]	100 to 1000	100 to 1000	100 to 1000	10 to 100	10 to 100	10 to 100		10 to 100	10 to 100	< 5000	1000 to 10000	
CCn1c(-c2cnccc2COC)c2c3cc(ccc31)-c1cc(O)cc(c1)C[C@H](NC(=O)[C@H](C(C)C)N(C)C(=O)[C@H]1CCN(C(=O)N3C[C@H]3C(=O)OC)C1)C(=O)N1CCC[C@H](N1)C(=O)OCC(C)(C)C2 [Compound 111]	100 to 1000	100 to 1000	1000 to 10000	100 to 1000	100 to 1000	100 to 1000	> 10000	100 to 1000	100 to 1000			
CCn1c(-c2cnccc2COC)c2c3cc(ccc31)-c1cc(O)cc(c1)C[C@H](NC(=O)[C@H](C(C)C)N(C)C(=O)CN(C)C(=O)[C@H]1N[C@H]1c1ccccc1)C(=O)N1CCC[C@H](N1)C(=O)OCC(C)(C)C2 [Compound 116]												IC50 (KRAS G13D): 100 to 1000 nM; IC50 (KRAS G12V): 100 to 1000 nM; IC50 (KRAS G12D): 1000 to 10000 nM; IC50 (KRAS G13C): 100 to 1000 nM; IC50 (KRAS G12S): 100 to 1000 nM; IC50 (KRAS WT): 10 to 100 nM; IC50 (AsPC-1 (K-Ras G12D) [1]; read-out: AsPC-1 Cell Viability IC50, AsPC-1, K-Ras G12D, 5-day treatment): > 10000 nM; IC50 (KRAS G12C): 100 to 1000 nM; IC50 (NRAS G12C; NRAS G12C FRET data IC50, NRAS G12C): 100 to 1000 nM
CCn1c(-c2cccnc2[C@H](C)OC)c2c3cc(ccc31)-c1cccc(c1)C[C@H](NC(=O)[C@H](C(C)C)N1CC[C@H](CN=C=NCCOC)C1)C(=O)N1CCC[C@H](N1)C(=O)OCC(C)(C)C2 [Compound 122]	> 10000	1000 to 10000	1000 to 10000	100 to 1000	1000 to 10000	1000 to 10000	1000 to 10000	100 to 1000	100 to 1000			
CCn1c(-c2cccnc2[C@H](C)OC)c2c3cc(ccc31)-c1cc(O)cc(c1)C[C@H](NC(=O)[C@H](C(C)C)N1CCC3(CCN(C(=O)[C@@H]4CN4)CC3)C1=O)C(=O)N1CCC[C@H](N1)C(=O)OCC(C)(C)C2 [Compound 195]	10 to 100	100 to 1000	1000 to 10000	< 10	100 to 1000	10 to 100	> 10000	10 to 100	10 to 100			
CCn1c(-c2cnccc2COC)c2c3cc(ccc31)-c1cc(O)cc(c1)C[C@H](NC(=O)[C@H](C(C)C)N(C)C(=O)CN1C(=O)[C@@H]3[C@H](C1=O)N3Cc1ccccc1)C(=O)N1CCC[C@H](N1)C(=O)OCC(C)(C)C2 (stereo partly drawn) [Example 55, (2S)-2-(2-((1R,5S)-6-benzyl-2,4-dioxo-3,6-diazabicyclo[3.1.0]hexan-3-yl)-N-methylacetamido)-N-((6^3S,4S)-1^1-ethyl-2^5-hydroxy-1^2-(4-(methoxymethyl)pyridin-3-yl)-10,10-dimethyl-5,7-dioxo-6^1,6^2,6^3,6^4,6^5,6^6-hexahydro-1^1H-8-oxa-1(5,3)-indola-6(1,3)-pyridazina-2(1,3)-benzenacycloundecaphane-4-yl)-3-methylbutanamide]	1000 to 10000	100 to 1000	> 10000	100 to 1000	100 to 1000	1000 to 10000	> 10000	100 to 1000	100 to 1000			

Source: patent US11739074B2, “Ras inhibitors” (Revolution Medicines, Inc., priority 2019, dated 2023)
